According to patent US11065231B2, “Compounds and methods for the targeted degradation of interleukin-1 receptor- associated kinase 4 polypeptides” (Arvinas Operations, Inc., priority 2017, dated 2021):

Key:
IRAK4 [1] = target: T1, IRAK4 (Homo sapiens (Human), UniProt Q9NWZ3); test: Biochemical Z'-Lyte FRET assay for IRAK4 kinase inhibition; conditions: 2 nM enzyme, 1 mM ATP, 2 μM substrate
Protocol: Biochemical Assay for IRAK4 Kinase Inhibition.
A Z′-Lyte assay based on a fluorescence resonance energy transfer (FRET) readout was developed for measuring IRAK4-dependent phosphorylation of a FRET-peptide substrate as described by Thermo Fisher Scientific (Grand Island, N.Y.). At a starting concentration of 1.5 mM, the identified compounds were serially diluted with 100% dimethyl sulfoxide (DMSO) in 3-fold increments, into Greiner bio-one 96-well plates (cat. #: 650201, Greiner bio-one, Monroe, N.C.). Compounds were then transferred to intermediate Greiner bio-one 96-well plates and diluted 10-fold with Kinase assay buffer (25 mM HEPES, pH 7.5, 10 mM MgCl2, 10 mM MnCl2, 1 mM EGTA, and 0.01% Brij-35, 2 mM DTT). Three μL of the serially diluted compounds were then transferred in duplicate to low-volume 384-well black proxiplates (cat. #: 6008269; Perkin Elmer, Akron, Ohio), to give duplicate twelve-point concentration curves. Six μl of a 2.5× solution of IRAK4 enzyme (cat #: 40064, BPS Bioscience, San Diego, Calif.) in kinase buffer was added to each well, followed by a 10 minutes pre-incubation step. Reactions were initiated by adding 6 μl of a 2.5× substrate mix of ATP and Z′-Lyte Ser/Thr 7 peptide (cat. #: PV3180, Thermo Fisher Scientific, Grand Island, N.Y.) and proceeded at room temperature for 1 hour. The final concentration of key reagents in the 15 uL kinase reactions were 2 μM substrate, 2 nM enzyme, and 1 mM ATP, with dose responses starting at 30 μM compound. At the end of the kinase reactions, 5 μl of developing solution (as instructed in for cat. #: PV3180, Thermo Fisher Scientific, Grand Island, N.Y.) was added to each well and incubated at room temperature for 1 hour. All wells were read on an Envision 2105 Multilabel fluorescence plate reader (Perkin Elmer, Waltham, Mass.) at 400 nm excitation and 460 nm/530 nm emission. Plus and minus 100% inhibition controls were used to calculate percent inhibition and IC50 curves were generated using Graphpad Prism (La Jolla, Calif.).

IRAK4 [2] = target: T1, IRAK4; test: Western blot assay for assessing degradation of IRAK4 in MCF7 cells; format: cell-based; conditions: Table 5, IRAK4 degradation, 24 hour incubation, read-out: IRAK4 DC50
Protocol: Western Blot Assay for Assessing Degradation of IRAK4.
MCF7 cells, purchased from ATCC (Manassas, Va.), were used at a passage range of 2-19. Cells were seeded at 50% confluency in 96-well plates at 180 μl/well in cell media (Dulbecco's Modified Eagle medium/nutrient F-12 Ham-10% Fetal Bovine Serum) and incubated overnight. The next morning, compounds were serially diluted and added (20 μl into 180 μl media) at a final DMSO concentration of 0.1%. Cells were rinsed with cell media and replaced with compounds in media, followed by incubation overnight. After a 24 hour incubation with compound, cell were harvested (90-100% confluent at harvest). Cells were then washed once with 100 μl of Dulbecco's hosphate-buffered saline and then lysed with 40 μl of lysis buffer (1×RIPA+HALT protease inhibitor+HALT phosphatase inhibitor) on ice for 10 minutes. Lysates were then cleaned by filtration in 1.2 µm filter plates followed by western blotting. For each sample, 30 μl of lysate were added to 10 μl of 4×LDS sample buffer, then denatured at 95° C. for 5 minutes in the thermal cycler and placed on ice. Fifteen μL of each sample were then loaded on 4-15% Tris/Glycine gels and run for 25 minutes at 250 (constant) volts in 1× Tris/Glycine buffer. Protein was transferred from gels to nitrocellulose using a BioRad Turbo dry-transfer unit with the Turbo/midi default program. All blots were rinsed with ddH2O and blocked for 1 hour at room temperature in 5% bovine serum albumin (BSA) in tris-buffered saline-Tween 20 (TBS-T) (0.1%) on rocker. Blots were exposed to primary antibody in 5% BSA in TBS-T (0.1%) overnight at 4° C. on rocker. Primary antibodies, diluted 1:1000 in […], were as follows: anti-IRAK4 (cat. #: ab119942, Abcam, Cambridge, Mass.), anti-IRAK1 (cat. #: CST 4504S, Cell Signaling Technology, Danvers, Mass.), and anti-Beta-actin (Cat. #: ab8227, Abcam, Cambridge, Mass.). Blots were then washed with TBS-T (0.1%) three times for 5 minutes on a rocker at room temperature. Secondary antibody (1:18,000 anti-rabbit-HRP and/or anti-mouse-HRP in 5% BSA in TBST (0.1%) was then added, and blots incubated at room temperature rocker for 1 hour. Blots were washed 3 times in TBS-T (0.1%) for 5 minutes at room temperature on the rocker. Signal was developed with Femto Max substrate for 5 minutes and blots read on a ChemiDoc. Percent degradation was assessed by comparing IRAK4 signal in compound vs. DMSO treated lysates.

T1 sequence (Q9NWZ3 whole entry): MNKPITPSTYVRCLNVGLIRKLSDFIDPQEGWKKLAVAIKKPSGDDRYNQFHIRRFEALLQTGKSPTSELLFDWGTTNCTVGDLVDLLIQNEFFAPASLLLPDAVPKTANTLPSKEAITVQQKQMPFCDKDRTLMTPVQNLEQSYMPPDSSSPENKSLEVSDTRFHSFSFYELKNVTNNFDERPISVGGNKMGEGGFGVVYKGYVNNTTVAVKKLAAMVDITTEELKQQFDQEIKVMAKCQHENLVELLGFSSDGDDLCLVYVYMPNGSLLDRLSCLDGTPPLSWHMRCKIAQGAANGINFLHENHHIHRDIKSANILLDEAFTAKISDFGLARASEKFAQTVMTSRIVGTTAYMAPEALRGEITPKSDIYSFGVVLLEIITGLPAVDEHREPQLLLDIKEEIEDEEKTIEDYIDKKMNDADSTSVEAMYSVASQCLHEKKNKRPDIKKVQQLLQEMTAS

| SMILES | IC50 (IRAK4 [1]) [nM] | DC50 (IRAK4 [2]) [nM] |
| --- | --- | --- |
| N#Cc1ccc2ncnc(N[C@H]3CC[C@H](N4CCN(CCOCCOCCOCCOc5ccc6c(c5)C(=O)N(C5CCC(=O)NC5=O)C6=O)CC4)CC3)c2c1 (stereo partly shown) [compound 32] | ≥ 1000 | ≥ 1000 |
| N#Cc1ccc2ncnc(N[C@H]3CC[C@H](N4CCN(CCOCCOCCOCCOCCOc5ccc6c(c5)C(=O)N(C5CCC(=O)NC5=O)C6=O)CC4)CC3)c2c1 (stereo partly shown) [compound 33] | ≥ 1000 | ≥ 1000 |
| N#Cc1ccc2ncnc(N[C@H]3CC[C@H](N4CCN(S(=O)(=O)CCOCCOc5ccc6c(c5)C(=O)N(C5CCC(=O)NC5=O)C6=O)CC4)CC3)c2c1 (stereo partly shown) [compound 34] | ≥ 1000 | ≥ 1000 |
| N#Cc1ccc2ncnc(N[C@H]3CC[C@@H](N4CCN(S(=O)(=O)CCOCCOc5ccc6c(c5)C(=O)N(C5CCC(=O)NC5=O)C6=O)CC4)CC3)c2c1 (stereo partly shown) [compound 35] | ≥ 1000 | ≥ 1000 |
| N#Cc1ccc2ncnc(N[C@H]3CC[C@H](N4CCN(S(=O)(=O)CCOCCOCCOc5ccc6c(c5)C(=O)N(C5CCC(=O)NC5=O)C6=O)CC4)CC3)c2c1 (stereo partly shown) [compound 36] | ≥ 1000 | ≥ 1000 |
| N#Cc1ccc2ncnc(N[C@H]3CC[C@H](N4CCN(S(=O)(=O)CCOCCOCCOCCOCCOc5ccc6c(c5)C(=O)N(C5CCC(=O)NC5=O)C6=O)CC4)CC3)c2c1 (stereo partly shown) [compound 40] | ≥ 1000 | ≥ 1000 |
| N#Cc1ccc2ncnc(N[C@H]3CC[C@@H](N4CCN(S(=O)(=O)CCOCCOCCOCCOCCOc5ccc6c(c5)C(=O)N(C5CCC(=O)NC5=O)C6=O)CC4)CC3)c2c1 (stereo partly shown) [compound 41] | ≥ 1000 | ≥ 1000 |
| O=C1CCC(N2C(=O)c3ccc(OCCOCCOC[C@H]4CC[C@@H](n5c(NC(=O)c6cccc(C(F)(F)F)c6)nc6cc(CN7CCCCC7)ccc65)CC4)cc3C2=O)C(=O)N1 (stereo partly shown) [compound 44, N-(1-((1s,4s)-4-((2-(2-((2-(2,6-dioxopiperidin-3-yl)-1,3-dioxoisoindolin-5-yl)oxy)ethoxy)ethoxy)methyl)cyclohexyl)-5-(piperidin-1-ylmethyl)-1H-benzo[d]imidazol-2-yl)-3-(trifluoromethyl)benzamide] | ≥ 1000 | ≥ 1000 |
| O=C1CCC(N2C(=O)c3ccc(OCCOCCOC[C@H]4CC[C@@H](n5c(NC(=O)c6cccc(C(F)(F)F)c6)nc6cc(F)ccc65)CC4)cc3C2=O)C(=O)N1 (stereo partly shown) [compound 46, N-(1-((1s,4s)-4-((2-(2-((2-(2,6-dioxopiperidin-3-yl)-1,3-dioxoisoindolin-5-yl)oxy)ethoxy)ethoxy)methyl)cyclohexyl)-5-fluoro-1H-benzo[d]imidazol-2-yl)-3-(trifluoromethyl)benzamide] | ≥ 1000 | ≥ 1000 |
| O=C1CCC(N2C(=O)c3ccc(OCCOCCOCCOC[C@H]4CC[C@@H](n5c(NC(=O)c6cccc(C(F)(F)F)c6)nc6cc(F)ccc65)CC4)cc3C2=O)C(=O)N1 (stereo partly shown) [compound 47, N-(1-((1s,4s)-4-((2-(2-(2-((2-(2,6-dioxopiperidin-3-yl)-1,3-dioxoisoindolin-5-yl)oxy)ethoxy)ethoxy)ethoxy)methyl)cyclohexyl)-5-fluoro-1H-benzo[d]imidazol-2-yl)-3-(trifluoromethyl)benzamide] | ≥ 1000 | ≥ 1000 |
| O=C1CCC(N2C(=O)c3ccc(OCCOCCOCCOCCOC[C@H]4CC[C@@H](n5c(NC(=O)c6cccc(C(F)(F)F)c6)nc6cc(F)ccc65)CC4)cc3C2=O)C(=O)N1 (stereo partly shown) [compound 48, N-(1-((1s,4s)-4-(13-((2-(2,6-dioxopiperidin-3-yl)-1,3-dioxoisoindolin-5-yl)oxy)-2,5,8,11-tetraoxatridecyl)cyclohexyl)-5-fluoro-1H-benzo[d]imidazol-2-yl)-3-(trifluoromethyl)benzamide] | ≥ 1000 | ≥ 1000 |
| CN(CCOCCOCCOc1ccc2c(c1)C(=O)N(C1CCC(=O)NC1=O)C2=O)c1cccc(-n2c(NC(=O)c3cccc(C(F)(F)F)c3)nc3cc(F)ccc32)c1 (stereo not shown) [compound 49, N-(1-(3-((2-(2-(2-((2-(2,6-dioxopiperidin-3-yl)-1,3-dioxoisoindolin-5-yl)oxy)ethoxy)ethoxy)ethyl) (methyl)amino)phenyl)-5-fluoro-1H-benzo[d]imidazol-2-yl)-3-(trifluoromethyl)benzamide] | ≥ 1000 | ≥ 1000 |
| CN(CCOc1ccc2c(c1)C(=O)N(C1CCC(=O)NC1=O)C2=O)c1cccc(-n2c(NC(=O)c3cccc(C(F)(F)F)c3)nc3cc(F)ccc32)c1 (stereo not shown) [compound 50, N-(1-(3-((2-((2-(2,6-dioxopiperidin-3-yl)-1,3-dioxoisoindolin-5-yl)oxy)ethyl)(methyl)amino)phenyl)-5-fluoro-1H-benzo[d]imidazol-2-yl)-3-(trifluoromethyl)benzamide] | ≥ 1000 | ≥ 1000 |
| CN(CCOCCOc1ccc2c(c1)C(=O)N(C1CCC(=O)NC1=O)C2=O)c1cccc(-n2c(NC(=O)c3cccc(C(F)(F)F)c3)nc3cc(F)ccc32)c1 (stereo not shown) [compound 51, N-(1-(3-((2-(2-((2-(2,6-dioxopiperidin-3-yl)-1,3-dioxoisoindolin-5-yl)oxy)ethoxy)ethyl)(methyl)amino)phenyl)-5-fluoro-1H-benzo[d]imidazol-2-yl)-3-(trifluoromethyl)benzamide] | ≥ 1000 | ≥ 1000 |
| CN(CCOCCOCCOCCOc1ccc2c(c1)C(=O)N(C1CCC(=O)NC1=O)C2=O)c1cccc(-n2c(NC(=O)c3cccc(C(F)(F)F)c3)nc3cc(F)ccc32)c1 (stereo not shown) [compound 52, N-(1-(3-((2-(2-(2-(2-((2-(2,6-dioxopiperidin-3-yl)-1,3-dioxoisoindolin-5-yl)oxy)ethoxy)ethoxy)ethoxy)ethyl)(methyl)amino)phenyl)-5-fluoro-1H-benzo[d]imidazol-2-yl)-3-(trifluoromethyl)benzamide] | ≥ 1000 | ≥ 1000 |
| O=C1CCC(N2C(=O)c3ccc(OCCOCCOCCN4CCN(Cc5ccc6c(c5)nc(NC(=O)c5cccc(C(F)(F)F)c5)n6-c5ccccc5)CC4)cc3C2=O)C(=O)N1 (stereo not shown) [compound 53, N-(5-((4-(2-(2-(2-((2-(2,6-dioxopiperidin-3-yl)-1,3-dioxoisoindolin-5-yl)oxy)ethoxy)ethoxy)ethyl)piperazin-1-yl)methyl)-1-phenyl-1H-benzo[d]imidazol-2-yl)-3-(trifluoromethyl)benzamide] | ≥ 1000 | ≥ 1000 |
| COc1cccc(-n2c(NC(=O)c3cccc(C(F)(F)F)c3)nc3cc(CN4CCN(CCOCCOCCOc5ccc6c(c5)C(=O)N(C5CCC(=O)NC5=O)C6=O)CC4)ccc32)c1 (stereo not shown) [compound 54, N-(5-((4-(2-(2-(2-((2-(2,6-dioxopiperidin-3-yl)-1,3-dioxoisoindolin-5-yl)oxy)ethoxy)ethoxy)ethyl)piperazin-1-yl)methyl)-1-(3-methoxyphenyl)-1H-benzo[d]imidazol-2-yl)-3-(trifluoromethyl)benzamide] | ≥ 1000 | ≥ 1000 |
